According to patent publication US20230250066A1, “HERBICIDAL CINNOLINE DERIVATIVES” (SYNGENTA CROP PROTECTION AG, priority 2020, published 2023):

Columns and labels:
Type in all cases: in vivo
[1] = system: Amaranthus retoflexus (AMARE); test: Pre-emergence herbicidal test; conditions: 1000 g/ha, evaluated after 13 days
Setaria faberi (SETFA) [2] = test: Pre-emergence herbicidal test; conditions: 1000 g/ha, evaluated after 13 days
[3] = system: Echinochloa crus-galli (ECHCG); test: Pre-emergence herbicidal test; conditions: 1000 g/ha, evaluated after 13 days
[4] = system: Ipomoea hederacea (IPOHE); test: Pre-emergence herbicidal test; conditions: 1000 g/ha, evaluated after 13 days
[5] = system: Abutilon theophrasti (ABUTH); test: Pre-emergence herbicidal test; conditions: 1000 g/ha, evaluated after 13 days
Zea mays (ZEAMX) [6] = test: Pre-emergence herbicidal test; conditions: 1000 g/ha, evaluated after 13 days
[7] = system: Abutilon theophrasti (ABUTH); test: Post-emergence herbicidal test; conditions: 1000 g/ha unless otherwise stated, evaluated after 13 days
Outline: (§1)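 Scored 0–5 for percent damage (0=0%, 5=81-100%) 13 days after spraying, typically at 1000 g/ha in acetone/water (50:50) plus 0.5% Tween 20. Post-emergence plants treated at 8 days old, grown at 24° C/16° C day/night, 14 h light, 65% humidity, watered twice daily.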

[8] = system: Amaranthus retoflexus (AMARE); test: Post-emergence herbicidal test; conditions: 1000 g/ha unless otherwise stated, evaluated after 13 days
Outline: as §1

[9] = system: Echinochloa crus-galli (ECHCG); test: Post-emergence herbicidal test; conditions: 1000 g/ha unless otherwise stated, evaluated after 13 days
Outline: as §1

[10] = system: Ipomoea hederacea (IPOHE); test: Post-emergence herbicidal test; conditions: 1000 g/ha unless otherwise stated, evaluated after 13 days
Outline: as §1

Setaria faberi (SETFA) [11] = test: Post-emergence herbicidal test; conditions: 1000 g/ha unless otherwise stated, evaluated after 13 days
Outline: as §1

Zea mays (ZEAMX) [12] = test: Post-emergence herbicidal test; conditions: 1000 g/ha unless otherwise stated, evaluated after 13 days
Outline: as §1

Row | SMILES | percentage damage caused to the plant, five-point scale, AMARE [1] | percentage damage caused to the plant, five-point scale, SETFA (Setaria faberi (SETFA) [2]) | percentage damage caused to the plant, five-point scale, ECHCG [3] | percentage damage caused to the plant, five-point scale, IPOHE [4] | percentage damage caused to the plant, five-point scale, ABUTH [5] | percentage damage caused to the plant, five-point scale, ZEAMX (Zea mays (ZEAMX) [6]) | percentage damage caused to the plant, ABUTH (five-point scale) [7] | percentage damage caused to the plant, AMARE (five-point scale) [8] | percentage damage caused to the plant, ECHCG (five-point scale) [9] | percentage damage caused to the plant, IPOHE (five-point scale) [10] | percentage damage caused to the plant, SETFA (five-point scale) (Setaria faberi (SETFA) [11]) | percentage damage caused to the plant, ZEAMX (five-point scale) (Zea mays (ZEAMX) [12])
1 | CC(C)OC(=O)c1nn(-c2ccc(OC(F)(F)F)cc2)c2cccc(S(C)(=O)=O)c2c1=O [Compound P65, isopropyl 5-methylsulfonyl-4-oxo-1-[4-(trifluoromethoxy)phenyl]cinnoline-3-carboxylate] | 1 (1=10-20%) | 4 (4=61-80%) | 4 (4=61-80%) | 0 (0=0%) | 1 (1=10-20%) | 0 (0=0%) | 1 (1=10-20%) | 1 (1=10-20%) | 3 (3=41-60%) | 0 (0=0%) | 4 (4=61-80%) | 0 (0=0%)
2 | C=C(Cl)COC(=O)c1nn(-c2ccc(OC(F)(F)F)cc2)c2cccc(S(C)(=O)=O)c2c1=O [Compound P66, 2-chloroallyl 5-methylsulfonyl-4-oxo-1-[4-(trifluoromethoxy)phenyl]cinnoline-3-carboxylate] | 0 (0=0%) | 5 (5=81-100%) | 4 (4=61-80%) | 1 (1=10-20%) | 0 (0=0%) | 1 (1=10-20%) | 1 (1=10-20%) | 0 (0=0%) | 4 (4=61-80%) | 0 (0=0%) | 4 (4=61-80%) | 1 (1=10-20%)
3 | CS(=O)(=O)c1cccc2c1c(=O)c(C(=O)OCC(F)F)nn2-c1ccc(OC(F)(F)F)cc1 [Compound P67, 2,2-difluoroethyl 5-methylsulfonyl-4-oxo-1-[4-(trifluoromethoxy)phenyl]cinnoline-3-carboxylate] | 0 (0=0%) | 5 (5=81-100%) | 4 (4=61-80%) | 0 (0=0%) | 0 (0=0%) | 2 (2=21-40%) | 1 (1=10-20%) | 1 (1=10-20%) | 3 (3=41-60%) | 1 (1=10-20%) | 4 (4=61-80%) | 1 (1=10-20%)
4 | CC(C)(C)COC(=O)c1nn(-c2ccc(OC(F)(F)F)cc2)c2cccc(S(C)(=O)=O)c2c1=O [Compound P68, 2,2-dimethylpropyl 5-methylsulfonyl-4-oxo-1-[4-(trifluoromethoxy)phenyl]cinnoline-3-carboxylate] | 0 (0=0%) | 4 (4=61-80%) | 4 (4=61-80%) | 0 (0=0%) | 0 (0=0%) | 0 (0=0%) | 0 (0=0%) | 0 (0=0%) | 3 (3=41-60%) | 0 (0=0%) | 3 (3=41-60%) | 1 (1=10-20%)
5 | COCCCOC(=O)c1nn(-c2ccc(OC(F)(F)F)cc2)c2cccc(S(C)(=O)=O)c2c1=O [Compound P69, 3-methoxypropyl 5-methylsulfonyl-4-oxo-1-[4-(trifluoromethoxy)phenyl]cinnoline-3-carboxylate] | 0 (0=0%) | 4 (4=61-80%) | 4 (4=61-80%) | 0 (0=0%) | 0 (0=0%) | 0 (0=0%) | 1 (1=10-20%) | 0 (0=0%) | 3 (3=41-60%) | 1 (1=10-20%) | 4 (4=61-80%) | 2 (2=21-40%)
6 | CS(=O)(=O)c1cccc2c1c(=O)c(C(=O)OC1CCOC1)nn2-c1ccc(OC(F)(F)F)cc1 (stereo not drawn) [Compound P70, tetrahydrofuran-3-yl 5-methylsulfonyl-4-oxo-1-[4-(trifluoromethoxy)phenyl]cinnoline-3-carboxylate] | 0 (0=0%) | 4 (4=61-80%) | 3 (3=41-60%) | 0 (0=0%) | 0 (0=0%) | 1 (1=10-20%) | 1 (1=10-20%) | 0 (0=0%) | 3 (3=41-60%) | 0 (0=0%) | 4 (4=61-80%) | 0 (0=0%)
7 | C#CCCOC(=O)c1nn(-c2ccc(OC(F)(F)F)cc2)c2cccc(S(C)(=O)=O)c2c1=O [Compound P71, but-3-ynyl 5-methylsulfonyl-4-oxo-1-[4-(trifluoromethoxy)phenyl]cinnoline-3-carboxylate] | 0 (0=0%) | 5 (5=81-100%) | 4 (4=61-80%) | 0 (0=0%) | 0 (0=0%) | 0 (0=0%) | 0 (0=0%) | 0 (0=0%) | 3 (3=41-60%) | 1 (1=10-20%) | 3 (3=41-60%) | 1 (1=10-20%)
8 | CC(C)COC(=O)c1nn(-c2ccc(OC(F)(F)F)cc2)c2cccc(S(C)(=O)=O)c2c1=O [Compound P72, isobutyl 5-methylsulfonyl-4-oxo-1-[4-(trifluoromethoxy)phenyl]cinnoline-3-carboxylate] | 0 (0=0%) | 4 (4=61-80%) | 4 (4=61-80%) | 0 (0=0%) | 0 (0=0%) | 0 (0=0%) | 0 (0=0%) | 0 (0=0%) | 3 (3=41-60%) | 1 (1=10-20%) | 4 (4=61-80%) | 1 (1=10-20%)
9 | CS(=O)(=O)c1cccc2c1c(=O)c(C(=O)OCCC#N)nn2-c1ccc(OC(F)(F)F)cc1 [Compound P73, 2-cyanoethyl 5-methylsulfonyl-4-oxo-1-[4-(trifluoromethoxy)phenyl]cinnoline-3-carboxylate] | 0 (0=0%) | 5 (5=81-100%) | 3 (3=41-60%) | 0 (0=0%) | 0 (0=0%) | 0 (0=0%) | 0 (0=0%) | 0 (0=0%) | 3 (3=41-60%) | 1 (1=10-20%) | 4 (4=61-80%) | 1 (1=10-20%)
